Source: US10752588B2 (The Broad Institute, Inc., priority 2014, dated 2020)

Tests used:
[1] = molecular target: T1, human D2R/β-arrestin (Homo sapiens (Human), UniProt P14416); assay: Gi/cAMP agonist assay (Lance Ultra cAMP, Forskolin); format: cell-based; conditions: CHO-K1 cell line expressing human D2R/β-arrestin
Summary of the method: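 Cells were plated and incubated before compounds were pin-transferred and incubated for 10 min at 37 °C. Forskolin was then added to stimulate cAMP. cAMP was detected by Lance Ultra TR-FRET using Eu-cAMP tracer and ULight-anti-cAMP antibody.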

[2] = molecular target: T1, human D2R/β-arrestin; assay: cell-based; conditions: cAMP Antagonist, CHO-K1 cell line expressing human D2R/β-arrestin; quinpirole used as agonist
Method: (§1) The detection reagents are then added, and the read-out is detected.
(§2) Cells were prepared for assays by growing cultures for up to 2 weeks (from about 6-20 passages). A vial of frozen cells was thawed in a water bath held at 37° C. The cells were then transferred into a 50 ml tube with 10 ml growth media. The vial was rinsed with growth media and the contents transferred to the 50 ml tube. The 50 ml tube was centrifuged at 1200 rpm for 5 minutes at room temperature. […] When the cells reached about 90% confluence (approximately 3 days between passages), the cells were passaged and used for either the agonist or antagonist assays as described below.
The cells were prepared for Gi/cAMP assays as described above. The assays were performed using a PE Lance Ultra cAMP kit (TRF0263). The cells were grown on 225 mm dishes, then washed once with 1×PBS (Cellgro) before digestion with 2.5 ml 1× Detachment reagent (DRX 92-0009) for about 2 minutes. PBS (20 ml) was then added to the plate, and the cells were transferred to a 50 ml centrifuge tube, and centrifuged at room temperature using BD Dynac III, at 1200 rpm for 5 minutes. […] The plates were then incubated at room temperature for about 30 minutes before addition of Eu-cAMP tracer solution (100, PerkinElmer) and then ULight-anti-cAMP solution (100) to each well.

[3] = molecular target: T1, human D2R/β-arrestin; assay: β-Arrestin agonist assay (PathHunter); format: cell-based; conditions: CHO-K1 cell line expressing human D2R/β-arrestin
Summary of the method: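 After compound incubation, detection reagent (Buffer:Emerald II:Galactor-Star, 19:5:1) added and luminescence or fluorescence read.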

[4] = molecular target: T1, human D2R/β-arrestin; assay: cell-based; conditions: β-arrestin Antagonist, CHO-K1 cell line expressing human D2R/β-arrestin; quinpirole used as agonist
Method: as §1, §2
The cells were prepared for β-arrestin assays as described above. The assays were performed using a PathHunter® β-Arrestin Detecting Kit (DiscoveRX). The cells were grown on 225 mm dishes, then washed once with 1×PBS (Cellgro), followed by digestion with 2.5 ml 1× Detachment reagent (DRX 92-0009) for approximately 2 minutes.

T1 sequence (P14416 whole entry): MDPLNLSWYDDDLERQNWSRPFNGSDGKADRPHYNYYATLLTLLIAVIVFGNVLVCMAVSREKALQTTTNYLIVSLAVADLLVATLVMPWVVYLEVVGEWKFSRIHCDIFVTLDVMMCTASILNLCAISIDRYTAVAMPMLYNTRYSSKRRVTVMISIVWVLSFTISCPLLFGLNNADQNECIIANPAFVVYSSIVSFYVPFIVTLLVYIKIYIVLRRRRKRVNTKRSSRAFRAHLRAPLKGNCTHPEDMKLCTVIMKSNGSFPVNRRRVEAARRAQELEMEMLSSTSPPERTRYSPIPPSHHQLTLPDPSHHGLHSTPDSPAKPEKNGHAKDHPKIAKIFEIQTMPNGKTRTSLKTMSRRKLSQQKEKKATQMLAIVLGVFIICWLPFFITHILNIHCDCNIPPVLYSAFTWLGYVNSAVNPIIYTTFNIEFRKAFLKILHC

CC(C)N(CC1CCN(CCOc2ccccc2F)CC1)C(c1ccc(Cl)cc1)c1ccccn1 (single isomer, unassigned) [Compound 133b, N-((4-chlorophenyl)(pyridin-2-yl)methyl)-N-((1-(2-(2-fluorophenoxy)ethyl)piperidin-4-yl)methyl)propan-2-amine]
EC50 [1]: < 0.1 µM | IC50 [2]: > 30 µM | EC50 [3]: < 0.1 µM | IC50 [4]: 0.1 to 1 µM

O=C(NC(c1ccccn1)c1ccccc1C(F)(F)F)C1CCN(CCOc2ccccc2)CC1 (centres unmarked) [Compound 33, 1-(2-phenoxyethyl)-N-(pyridin-2-yl(2-(trifluoromethyl)phenyl)methyl) piperidine-4-carboxamide]
EC50 [1]: 1 to 10 µM | IC50 [2]: > 30 µM | EC50 [3]: > 30 µM | IC50 [4]: 10 to 30 µM

O=C(NC(c1ccccc1F)c1ccccc1F)C1CCN(CCOc2ccccc2)CC1 [Compound 48, N-(bis(2-fluorophenyl)methyl)-1-(2-phenoxyethyl)piperidine-4-carboxamide]
EC50 [1]: 1 to 10 µM | IC50 [2]: > 30 µM | EC50 [3]: > 30 µM | IC50 [4]: 1 to 10 µM

c1ccc(OCCN2CCC(CNC(c3ccc4c(c3)OCO4)c3ccccn3)CC2)cc1 (single isomer, unassigned) [Compound 102a, 1-(benzo[d][1,3]dioxol-5-yl)-N-((1-(2-phenoxyethyl)piperidin-4-yl)methyl)-1-(pyridin-2-yl)methanamine]
EC50 [1]: > 30 µM | IC50 [2]: 1 to 10 µM | EC50 [3]: > 30 µM | IC50 [4]: 1 to 10 µM

Fc1ccccc1OCCN1CCC(CNC(c2ccc(Cl)cc2)c2ccccn2)CC1 (centres unmarked) [Compound 121, 1-(4-chlorophenyl)-N-((1-(2-(2-fluorophenoxy)ethyl)piperidin-4-yl)methyl)-1-(pyridin-2-yl) methanamine]
EC50 [1]: > 30 µM | IC50 [2]: 0.1 to 1 µM | EC50 [3]: > 30 µM | IC50 [4]: 0.1 to 1 µM

O=C(NC(c1ccc(F)cc1)c1ccccn1)C1CCN(CC2Cc3ccccc3C2)CC1 (centres unmarked) [Compound 61, 1-((2,3-dihydro-1H-inden-2-yl)methyl)-N-((4-fluorophenyl)(pyridin-2-yl)methyl)piperidine-4-carboxamide]
EC50 [1]: > 30 µM | IC50 [2]: 10 to 30 µM | EC50 [3]: > 30 µM | IC50 [4]: 10 to 30 µM

O=C(NC1CCN(CCOc2ccccc2)CC1)C(c1ccc(Cl)cc1)c1ccccn1 (centres unmarked) [Compound 126, 2-(4-chlorophenyl)-N-(1-(2-phenoxyethyl)piperidin-4-yl)-2-(pyridin-2-yl)acetamide]
EC50 [1]: < 0.1 µM | IC50 [2]: > 30 µM | EC50 [3]: > 30 µM | IC50 [4]: 1 to 10 µM

O=C(NC(c1ccc(Cl)cc1)c1ccccn1)C1CCN(CCOc2ccc3ncsc3c2)CC1 (centres unmarked) [Compound 19, 1-(2-(Benzo[d]thiazol-6-yloxy)ethyl)-N-((4-chlorophenyl)(pyridin-2-yl)methyl) piperidine-4-carboxamide]
EC50 [1]: 0.1 to 1 µM | IC50 [2]: > 30 µM | EC50 [3]: > 30 µM | IC50 [4]: 1 to 10 µM

FC(F)(F)CN(CC1CCN(CCOc2ccccc2)CC1)C(c1ccc(Cl)cc1)c1ccccn1 (single isomer, unassigned) [Compound 125b, N-((4-chlorophenyl)(pyridin-2-yl)methyl)-2,2,2-trifluoro-N-((1-(2-phenoxyethyl)piperidin-4-yl)methyl)ethanamine]
EC50 [1]: > 30 µM | IC50 [2]: 1 to 10 µM | EC50 [3]: > 30 µM | IC50 [4]: 0.1 to 1 µM

O=C(NC(c1ccc(Cl)cc1)c1ccccn1)C1CCN(CCn2ccccc2=O)CC1 (centres unmarked) [Compound 9, N((4-chlorophenyl)(pyridin-2-yl)methyl)-1-(2-(2-oxopyridin-1(2H)-yl)ethyl) piperidine-4-carboxamide]
EC50 [1]: > 30 µM | IC50 [2]: 1 to 10 µM | EC50 [3]: > 30 µM | IC50 [4]: 1 to 10 µM

O=C(NC(c1cccc(OC(F)(F)F)c1)c1ccccn1)C1CCN(CCOc2ccccc2)CC1 (centres unmarked) [Compound 118, 1-(2-phenoxyethyl)-N-(pyridin-2-yl(3-(trifluoromethoxy)phenyl)methyl) piperidine-4-carboxamide]
EC50 [1]: < 0.1 µM | IC50 [2]: > 30 µM | EC50 [3]: > 30 µM | IC50 [4]: 1 to 10 µM

O=C(NC(c1ccc2c(c1)OC(F)(F)O2)c1ccccn1)C1CCN(CCOc2ccccc2F)CC1 (centres unmarked) [Compound 94, N-((2,2-difluorobenzo[d][1,3]dioxol-5-yl)(pyridin-2-yl)methyl)-1-(2-(2-fluorophenoxy)ethyl)piperidine-4-carboxamide]
EC50 [1]: < 0.1 µM | IC50 [2]: > 30 µM | EC50 [3]: 0.1 to 1 µM | IC50 [4]: 0.1 to 1 µM

O=C(NC(c1ccc(Cl)cc1)c1ccncc1F)C1CCN(CCOc2ccccc2F)CC1 (centres unmarked) [Compound 91, N-((4-chlorophenyl)(3-fluoropyridin-4-yl)methyl)-1-(2-(2-fluorophenoxy)ethyl)piperidine-4-carboxamide]
EC50 [1]: 0.1 to 1 µM | IC50 [2]: 0.1 to 1 µM | EC50 [3]: > 30 µM | IC50 [4]: 0.1 to 1 µM

O=C(NC(c1ccc(F)cc1)c1ccccn1)C1CCN(CCOc2c(F)cccc2F)CC1 (centres unmarked) [Compound 56, 1-(2-(2,6-difluorophenoxy)ethyl)-N-((4-fluorophenyl)(pyridin-2-yl)methyl) piperidine-4-carboxamide]
EC50 [1]: > 30 µM | IC50 [2]: 0.1 to 1 µM | EC50 [3]: > 30 µM | IC50 [4]: 0.1 to 1 µM

CN(CC1CCN(CCOc2ccccc2F)CC1)C(c1ccc(Cl)cc1)c1ccccn1 (single isomer, unassigned) [Compound 72b, 1-(4-chlorophenyl)-N-((1-(2-(2-fluorophenoxy)ethyl)piperidin-4-yl)methyl)-N-methyl-1-(pyridin-2-yl)methanamine]
EC50 [1]: > 30 µM | IC50 [2]: < 0.1 µM | EC50 [3]: > 30 µM | IC50 [4]: < 0.1 µM

COc1ccccc1C(NC(=O)C1CCN(CCOc2ccccc2)CC1)c1ccccn1 (centres unmarked) [Compound 36, N((2-methoxyphenyl)(pyridin-2-yl)methyl)-1-(2-phenoxyethyl) piperidine-4-carboxamide]
EC50 [1]: > 30 µM | IC50 [2]: > 30 µM | EC50 [3]: > 30 µM | IC50 [4]: 10 to 30 µM

O=C(NC(c1ccc(Cl)cc1)c1ccccn1)C1CCN(CCOc2c(F)cccc2F)CC1 (centres unmarked) [Compound 67, N-((4-chlorophenyl)(pyridin-2-yl)methyl)-1-(2-(2,6-difluorophenoxy)ethyl)piperidine-4-carboxamide]
EC50 [1]: > 30 µM | IC50 [2]: < 0.1 µM | EC50 [3]: > 30 µM | IC50 [4]: 0.1 to 1 µM

COc1cccc(C(NC(=O)C2CCN(CCOc3ccccc3)CC2)c2cocn2)c1 (centres unmarked) [Compound 129, N-((3-methoxyphenyl)(oxazol-4-yl)methyl)-1-(2-phenoxyethyl)piperidine-4-carboxamide]
EC50 [1]: 1 to 10 µM | IC50 [2]: > 30 µM | EC50 [3]: > 30 µM | IC50 [4]: > 30 µM

COc1cccc(C(c2ccccn2)N(C)CC2CCN(CCOc3ccccc3)CC2)c1 (centres unmarked) [Compound 76, 1-(3-methoxyphenyl)-N-methyl-N-((1-(2-phenoxyethyl)piperidin-4-yl)methyl)-1-(pyridin-2-yl)methanamine]
EC50 [1]: < 0.1 µM | IC50 [2]: 10 to 30 µM | EC50 [3]: > 30 µM | IC50 [4]: 1 to 10 µM

CC(=O)N(CC1CCN(CCOc2ccccc2)CC1)C(c1ccc(Cl)cc1)c1ccccn1 (centres unmarked) [Compound 107, N-((4-chlorophenyl)(pyridin-2-yl)methyl)-N-((1-(2-phenoxyethyl)piperidin-4-yl)methyl) acetamide]
EC50 [1]: 0.1 to 1 µM | IC50 [2]: > 30 µM | EC50 [3]: > 30 µM | IC50 [4]: 0.1 to 1 µM

CC(C1CCN(CCOc2ccccc2)CC1)N(C)C(c1ccc(Cl)cc1)c1ccccn1 (single isomer, unassigned) [Compound 97c, N-((4-chlorophenyl)(pyridin-2-yl)methyl)-N-methyl-1-(1-(2-phenoxyethyl)piperidin-4-yl)ethan-1-amine]
EC50 [1]: > 30 µM | IC50 [2]: < 0.1 µM | EC50 [3]: > 30 µM | IC50 [4]: < 0.1 µM

O=C(NC(c1ccc2c(c1)OC(F)(F)O2)c1ccccn1)C1CCN(CCOc2ccc(F)cc2F)CC1 (centres unmarked) [Compound 130, N-((2,2-difluorobenzo[d][1,3]dioxol-5-yl)(pyridin-2-yl)methyl)-1-(2-(2,4-difluorophenoxy)ethyl)piperidine-4-carboxamide]
EC50 [1]: < 0.1 µM | IC50 [2]: > 30 µM | EC50 [3]: 0.1 to 1 µM | IC50 [4]: 1 to 10 µM

CC(C1CCN(CCOc2ccccc2)CC1)N(C)C(c1ccc(Cl)cc1)c1ccccn1 (centres unmarked) [Compound 97, N-((4-chlorophenyl)(pyridin-2-yl)methyl)-N-methyl-1-(1-(2-phenoxyethyl)piperidin-4-yl)ethan-1-amine]
EC50 [1]: > 30 µM | IC50 [2]: < 0.1 µM | EC50 [3]: > 30 µM | IC50 [4]: < 0.1 µM

COc1cccc(C(NC(=O)C2CCN(CCOc3ccc(F)cc3F)CC2)c2ccccn2)c1 (single isomer, unassigned) [Compound 145a, 1-(2-(2,4-difluorophenoxy)ethyl)-N-((3-methoxyphenyl)(pyridin-2-yl)methyl)piperidine-4-carboxamide]
EC50 [1]: > 30 µM | IC50 [2]: 1 to 10 µM | EC50 [3]: > 30 µM | IC50 [4]: 10 to 30 µM

Fc1ccccc1OCCN1CCC(CNC(c2ccc3c(c2)OCO3)c2ccccn2)CC1 (centres unmarked) [Compound 139, 1-(benzo[d][1,3]dioxol-5-yl)-N-((1-(2-(2-fluorophenoxy)ethyl)piperidin-4-yl)methyl)-1-(pyridin-2-yl)methanamine]
EC50 [1]: 1 to 10 µM | IC50 [2]: 0.1 to 1 µM | EC50 [3]: > 30 µM | IC50 [4]: 1 to 10 µM

O=C(NC(c1ccc(F)cc1)c1ccccc1F)C1CCN(CCOc2ccccc2Cl)CC1 (centres unmarked) [Compound 85, 1-(2-(2-chlorophenoxy)ethyl)-N-((2-fluorophenyl)(4-fluorophenyl)methyl)piperidine-4-carboxamide]
EC50 [1]: > 30 µM | IC50 [2]: < 0.1 µM | EC50 [3]: > 30 µM | IC50 [4]: < 0.1 µM
